Results as given in patent US7304174B2, “CaSR antagonist” (Japan Tobacco Inc., priority 2003, dated 2007).

How the values were obtained:
PTH secretion [1] = assay: Concomitant administration of test compound and estrogen: blood PTH with time; type: in vivo, ovariectomized rats; conditions: for PTH (1–84) concentration 0.25 hr: day 16, 0.25 hr; for PTH (1–84) concentration 0.5 hr: day 16, 0.5 hr; for PTH (1–84) concentration 1 hr: day 16, 1 hr; for PTH (1–84) concentration 2 hr: day 16, 2 hr; for PTH (1–84) concentration 4 hr: day 16, 4 hr; for PTH (1–84) concentration 0 hr: day 16, immediately before oral administration
Experimental: The 13-week-old ovariectomized rats were divided into 4 groups of a control group (Group A), an estrogen administration group (Group B), a test compound administration group (Group C), and a test compound and estrogen concomitant administration group (Group D). One sham control group (E group) subjected to a sham surgery was also established. Estradiol was dissolved in 5% benzyl alcohol-corn oil and subcutaneously administered to an estrogen administration groups (Group B and Group D) at the dose of 10 μg/kg. 5% Benzyl alcohol-corn oil was subcutaneously administered to groups (Group A and Group C) free from administration of estrogen. The compound of Example 1-1 was suspended in 0.5% methyl cellulose solution and orally administered to groups (Group C and Group D) to be administered with the test compound at the dose of 3 mg/kg. As regards the groups (Group A and Group B) free from administration of the test compound, 0.5% methyl cellulose solution was orally administered.
In addition, blood was drawn with time for the measurement of blood PTH at day 16 of administration. The blood was drawn in each group from the tail vein immediately before oral administration and 0.25, 0.5, 1, 2 and 4 hr later, and serum was obtained. For serum PTH measurement, a commercially available ELISA kit (“rat intact PTH ELISA kit”, Immutopics) was used.

bone resorption = assay: Concomitant administration of test compound and estrogen: bone resorption marker blood ICTP; type: in vivo, ovariectomized rats; conditions: for Blood ICTP concentration: mean ± S.D., n = 5
Experimental: The 13-week-old ovariectomized rats were divided into 4 groups of a control group (Group A), an estrogen administration group (Group B), a test compound administration group (Group C), and a test compound and estrogen concomitant administration group (Group D). One sham control group (E group) subjected to a sham surgery was also established. Estradiol was dissolved in 5% benzyl alcohol-corn oil and subcutaneously administered to an estrogen administration groups (Group B and Group D) at the dose of 10 μg/kg. 5% Benzyl alcohol-corn oil was subcutaneously administered to groups (Group A and Group C) free from administration of estrogen. The compound of Example 1-1 was suspended in 0.5% methyl cellulose solution and orally administered to groups (Group C and Group D) to be administered with the test compound at the dose of 3 mg/kg. As regards the groups (Group A and Group B) free from administration of the test compound, 0.5% methyl cellulose solution was orally administered. On day 13 from the start of the administration, the blood was drawn in each group from the tail vein, and serum was obtained. ICTP, which is a blood bone resorption marker, was measured using a commercially available ELISA kit (“RatLaps ELISA kit”, Nordic Bioscience Diagnostics).

PTH secretion [2] = assay: PTH secretion action, Experimental Example 2 (serum PTH after oral administration); type: in vivo, male SD rats; conditions: test compound administration group, 1 mg/5 ml/kg oral, rats fasted 20 hr
Experimental: The test compound was orally administered to 5 to 9-week-old male SD rats (Charles River Japan, Inc.) fasted for 20 hr, using a solvent (0.5% methyl cellulose solution) at a dose of 1 mg/5 ml/kg. A solvent alone was orally administered to the control group at a dose of 5 ml/kg. The blood was drawn from the tail vein immediately before and, 15 min, 30 min, 60 min and 120 min after the administration of the test compound, and serum was obtained. The serum PTH concentration was measured using rat PTH ELISA kit (Amersham Biosciences).

[3] = Group D concomitant with estradiol
[4] = exclusive administration (Group B estradiol; Group C Example 1-1 3 mg/kg oral)

Q: Which “Change of blood PTH with time” value (PTH secretion [1]; Table 66, Example 1-1 and estrogen concomitant administration) does the source give for Cc1ccc(CC(C)(C)NC[C@@H](O)CO[C@H](C)c2ccccc2-c2ccc(C(=O)O)c(C)c2)cc1F [Example 1-1, 2′-[(1R)-[(2R)-3-[[1-(3-Fluoro-4-methylphenyl)-2-methylpropan-2-yl]amino]-2-hydroxypropoxy]ethyl]-3-methylbiphenyl-4-carboxylic acid] here?
A: The value was “a transitional increase was observed”.

Q: And the “Change of blood PTH with time” value (PTH secretion [1]; Table 66, exclusive administration)?
A: Its value is “a transitional increase was observed”.

Q: What about the “PTH (1–84) concentration 0.25 hr” value (PTH secretion [1]; [3]) of the same molecule?
A: Its value is 407.35 ± 134.53 pg/mL.

Q: What about the “PTH (1–84) concentration 0.25 hr” value (PTH secretion [1]; [4]) of the same molecule?
A: The value was 371.21 ± 77.74 pg/mL.

Q: What about the “PTH (1–84) concentration 0.5 hr” value (PTH secretion [1]; [3]) of the same molecule?
A: The value was 418.87 ± 154.78 pg/mL.

Q: What about the “PTH (1–84) concentration 0.5 hr” value (PTH secretion [1]; [4]) of the same molecule?
A: The value was 370.78 ± 98.28 pg/mL.

Q: What about the “PTH (1–84) concentration 1 hr” value (PTH secretion [1]; [3]) of the same molecule?
A: The value was 279.76 ± 117.98 pg/mL.

Q: What about the “PTH (1–84) concentration 1 hr” value (PTH secretion [1]; [4]) of the same molecule?
A: The value was 177.39 ± 96.06 pg/mL.

Q: What about the “PTH (1–84) concentration 2 hr” value (PTH secretion [1]; [3]) of the same molecule?
A: Its value is 115.50 ± 74.98 pg/mL.

Q: And the “PTH (1–84) concentration 2 hr” value (PTH secretion [1]; [4])?
A: The value was 117.51 ± 123.12 pg/mL.

Q: What about the “PTH (1–84) concentration 4 hr” value (PTH secretion [1]; [3]) of the same molecule?
A: Its value is 58.84 ± 16.75 pg/mL.

Q: And the “PTH (1–84) concentration 4 hr” value (PTH secretion [1]; [4])?
A: The value was 56.50 ± 12.29 pg/mL.

Q: What about the “PTH (1–84) concentration 0 hr” value (PTH secretion [1]; Group D: Example 1-1 3 mg/kg oral and estradiol 10 μg/kg s.c. concomitant) of the same molecule?
A: The value was 27.12 ± 4.58 pg/mL.

Q: And the “PTH (1–84) concentration 0 hr” value (PTH secretion [1]; exclusive administration (Group B estradiol 10 μg/kg s.c.; Group C Example 1-1 3 mg/kg oral))?
A: The value was 31.19 ± 16.28 pg/mL.

Q: What about the “Effect of concomitant administration on suppression of ICTP increase by estrogen” value (bone resorption; Table 65, concomitant with estrogen) of the same molecule?
A: Its value is “did not show changes in the ability to suppress estrogen”.

Q: What about the “Blood ICTP concentration” value (bone resorption; day 13, Group D: Example 1-1 3 mg/kg oral and estradiol 10 μg/kg s.c. concomitant) of the same molecule?
A: The value was 21.77 ± 3.34 ng/mL.

Q: And the “Blood ICTP concentration” value (bone resorption; day 13, exclusive administration (Group B estradiol 10 μg/kg s.c.; Group C Example 1-1 3 mg/kg oral))?
A: Its value is 26.10 ± 3.45 ng/mL.

Q: What about the “Serum PTH concentration 15 min later” value (PTH secretion [2]; 15 min) of the same molecule?
A: The value was 43.9 ± 2.0 pg/mL.

Q: And the “Serum PTH concentration 30 min later” value (PTH secretion [2]; 30 min)?
A: The value was 25.0 ± 3.2 pg/mL.

Q: What about the “Serum PTH concentration 60 min later” value (PTH secretion [2]; 60 min) of the same molecule?
A: Its value is 17.9 ± 2.0 pg/mL.

Q: What about the “Serum PTH concentration 120 min later” value (PTH secretion [2]; 120 min) of the same molecule?
A: The value was 14.8 ± 1.6 pg/mL.
